From patent publication US8722849B2, “Polypeptides” (Novo Nordisk A/S, priority 2011, dated 2014)
Where two headings read alike, the source gives them in different places. Starred links: 1 amine or outer side, 2 acyl side, 3 side chain; linkers in the order of their positions; H or OH if unused. Positions of bridges follow the written chain, without caps; N, C: chain ends. Residues, ends and D or L forms follow the SMILES beside them. Groups on a side chain read outwards from the residue. *: point of attachment. C20 diacid = O=C(O)CCCCCCCCCCCCCCCCCCC(=O)*; C18 diacid = O=C(O)CCCCCCCCCCCCCCCCC(=O)*; γGlu = O=C(O)[C@H](CCC(=O)[*:2])N[*:1]; AEEA = NCCOCCOCC(=O)O

How the values were obtained:
[1] = Assay (IV) determination of solubility; type: physicochemical
Procedure, shortened: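 Solubility is measured across pH 3.0–8.0 by mixing a ~500 nmol/ml aqueous polypeptide stock 1:1 with 100 mM glycylglycine or bistrispropane buffers. Samples stand 18 hours at room temperature, then are centrifuged and the soluble concentration is determined by HPLC.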

[2] = biological target: T1, human calcitonin receptor (Homo sapiens, UniProt P30988); assay: Assay (II)a functional CRE-luciferase assay, human calcitonin receptor; type: cell-based
T1 construct: expressed in transfected cells; host or cells: BHK570
T1 sequence (P30988 25-474): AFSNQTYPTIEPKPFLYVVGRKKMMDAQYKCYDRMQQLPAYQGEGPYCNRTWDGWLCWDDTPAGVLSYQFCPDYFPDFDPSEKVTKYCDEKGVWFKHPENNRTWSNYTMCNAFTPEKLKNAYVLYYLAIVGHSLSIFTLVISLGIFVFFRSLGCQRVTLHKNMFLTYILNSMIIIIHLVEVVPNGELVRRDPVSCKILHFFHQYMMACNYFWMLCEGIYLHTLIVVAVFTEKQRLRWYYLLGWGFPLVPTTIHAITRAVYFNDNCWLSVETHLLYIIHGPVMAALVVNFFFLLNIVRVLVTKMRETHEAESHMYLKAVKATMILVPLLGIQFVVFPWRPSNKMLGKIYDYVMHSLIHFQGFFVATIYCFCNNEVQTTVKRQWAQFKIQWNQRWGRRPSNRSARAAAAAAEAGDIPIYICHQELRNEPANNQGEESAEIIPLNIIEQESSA

[3] = biological target: T2, human amylin receptor (amylin 3(a) receptor: human calcitonin receptor + RAMP-3) (Homo sapiens, UniProt O60896+P30988); assay: Assay (II)a functional CRE-luciferase assay, human amylin receptor; type: cell-based; conditions: Table 2; BHK amylin 3(a)-receptor/CRE-luc cells
T2 construct: expressed in transfected cells; host or cells: BHK570
T2 sequence (P30988 25-474): T1 sequence (P30988 25-474)
T2 sequence (O60896 24-148 partner): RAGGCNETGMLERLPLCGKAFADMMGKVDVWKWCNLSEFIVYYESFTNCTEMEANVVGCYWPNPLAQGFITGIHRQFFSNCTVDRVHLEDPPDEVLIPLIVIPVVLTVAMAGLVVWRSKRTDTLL

[4] = Assay (III) ThT fibrillation assay for physical stability; type: physicochemical; conditions: ThT fibrillation assay
Procedure, shortened: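 Freshly prepared formulations, pH-adjusted, with 1 μM ThT; four or eight replicates incubated at 37 °C under 960 rpm orbital shaking. Fluorescence (ex 444/em 485 nm) read every 20 min; […]. Peptide concentration measured by RP-HPLC before and after the run.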

[5] = bistrispropane buffer, pH 6, pH 6.0, read-out: Solubility pH 6.0
[6] = bistrispropane buffer, pH 6.5, pH 6.5, read-out: Solubility pH 6.5
[7] = bistrispropane buffer, pH 7, pH 7.0, 18 hours at room temperature, Table 3, read-out: Solubility pH 7.0
[8] = bistrispropane buffer, pH 7, pH 7.0, read-out: Solubility pH 7.0
[9] = bistrispropane buffer, pH 7.5, pH 7.5, read-out: Solubility pH 7.5
[10] = bistrispropane buffer, pH 8, pH 8.0, read-out: Solubility pH 8.0
[11] = glycylglycine buffer, pH 3, pH 3.0, read-out: Solubility pH 3.0
[12] = glycylglycine buffer, pH 4, pH 4.0, 18 hours at room temperature, Table 2, read-out: Solubility pH 4.0
[13] = glycylglycine buffer, pH 4, pH 4.0, read-out: Solubility pH 4.0
[14] = glycylglycine buffer, pH 5, pH 5.0, read-out: Solubility pH 5.0
[15] = Table 7, human calcitonin (CTa) receptor

| SMILES | solubility at 18 h [1, 5] | solubility at 18 h [1, 6] | solubility at 18 h [1, 7] | solubility at 18 h [1, 8] | solubility at 18 h [1, 9] | solubility at 18 h [1, 10] | solubility at 18 h [1, 11] | solubility at 18 h [1, 12] | solubility at 18 h [1, 13] | solubility at 18 h [1, 14] | EC50 [2, 15] | EC50 [3] | ThT pH 4.0 lag time (h) [4] | EC50 ([2]; Table 11, read-out: CTa receptor human EC50) |
| --- | --- | --- | --- | --- | --- | --- | --- | --- | --- | --- | --- | --- | --- | --- |
| CC[C@H](C)[C@H](NC(=O)[C@@H]1CCCN1C(=O)CNC(=O)[C@H](Cc1ccccc1)NC(=O)[C@H](CC(N)=O)NC(=O)[C@H](CC(N)=O)NC(=O)[C@H](CO)NC(=O)[C@H](CO)NC(=O)[C@H](CCCNC(=N)N)NC(=O)[C@H](Cc1c[nH]cn1)NC(=O)[C@H](CC(C)C)NC(=O)[C@H](Cc1ccccc1)NC(=O)[C@H](CCC(=O)O)NC(=O)[C@H](C)NC(=O)[C@H](CC(C)C)NC(=O)[C@H](CCCNC(=N)N)NC(=O)[C@H](CCC(N)=O)NC(=O)[C@@H](NC(=O)[C@H](C)NC(=O)[C@@H]1CSSC[C@H](NC(=O)[C@H](CCCCN)NC(=O)CC[C@H](NC(=O)CCCCCCCCCCCCCCCCCCC(=O)O)C(=O)O)C(=O)N[C@@H](CC(N)=O)C(=O)N[C@@H]([C@@H](C)O)C(=O)N[C@@H](C)C(=O)N[C@@H]([C@@H](C)O)C(=O)N1)[C@@H](C)O)C(=O)N[C@@H](CC(C)C)C(=O)N1CCC[C@H]1C(=O)N1CCC[C@H]1C(=O)N[C@H](C(=O)N[C@@H](CC(N)=O)C(=O)N[C@H](C(=O)NCC(=O)N[C@@H](CO)C(=O)N[C@@H](CC(N)=O)C(=O)N[C@H](C(=O)N[C@@H](Cc1ccc(O)cc1)C(N)=O)[C@@H](C)O)C(C)C)[C@@H](C)O [Example 79, N-alpha-[(S)-4-Carboxy-4-(19-carboxynonadecanoylamino)butyryl]-[Glu14,His17,Arg18]-pramlintide] ({C20 diacid-γGlu}-KCNTATCATQRLAEFLHRSSNNFGPILPPTNVGSNTY-NH2; disulfide 2-7 (inferred)) | > 200 µM | > 200 µM | > 200 µM | > 200 µM | > 200 µM | > 200 µM | > 200 µM | > 200 µM | > 200 µM | > 200 µM | 0.077 nM | 0.0565 nM | 16 h | – |
| CC[C@H](C)[C@H](NC(=O)[C@@H]1CCCN1C(=O)CNC(=O)[C@H](Cc1ccccc1)NC(=O)[C@H](CC(N)=O)NC(=O)[C@H](CC(N)=O)NC(=O)[C@H](CO)NC(=O)[C@H](CO)NC(=O)[C@H](Cc1c[nH]cn1)NC(=O)[C@H](CCCCNC(=O)COCCOCCNC(=O)COCCOCCNC(=O)CC[C@H](NC(=O)CCCCCCCCCCCCCCCCC(=O)O)C(=O)O)NC(=O)[C@H](CC(C)C)NC(=O)[C@H](Cc1ccccc1)NC(=O)[C@H](CCC(=O)O)NC(=O)[C@H](C)NC(=O)[C@H](CC(C)C)NC(=O)[C@H](CCCNC(=N)N)NC(=O)[C@H](CCC(N)=O)NC(=O)[C@@H](NC(=O)[C@H](C)NC(=O)[C@@H]1CSSC[C@H](NC(=O)[C@@H](N)CCCCN)C(=O)N[C@@H](CC(N)=O)C(=O)N[C@@H]([C@@H](C)O)C(=O)N[C@@H](C)C(=O)N[C@@H]([C@@H](C)O)C(=O)N1)[C@@H](C)O)C(=O)N[C@@H](CC(C)C)C(=O)N1CCC[C@H]1C(=O)N1CCC[C@H]1C(=O)N[C@H](C(=O)N[C@@H](CC(N)=O)C(=O)N[C@H](C(=O)NCC(=O)N[C@@H](CO)C(=O)N[C@@H](CC(N)=O)C(=O)N[C@H](C(=O)N[C@@H](Cc1ccc(O)cc1)C(N)=O)[C@@H](C)O)C(C)C)[C@@H](C)O [Example 80, N-epsilon17-[2-(2-{2-[2-(2-{2-[(S)-4-Carboxy-4-(17-carboxyheptadecanoylamino)butyrylamino]ethoxy}ethoxy)acetylamino]ethoxy}ethoxy)acetyl]-[Glu14,Lys17]-pramlintide] (H-KCNTATCATQRLAEFLK([AEEA-AEEA-γGlu-C18 diacid])HSSNNFGPILPPTNVGSNTY-NH2; disulfide 2-7) | > 200 µM | > 200 µM | > 200 µM | > 200 µM | > 200 µM | > 200 µM | > 200 µM | > 200 µM | > 200 µM | > 200 µM | – | 0.456 nM | 3 h | 4.3 nM |
| CC[C@H](C)[C@H](NC(=O)[C@@H]1CCCN1C(=O)CNC(=O)[C@H](Cc1ccccc1)NC(=O)[C@H](CC(N)=O)NC(=O)[C@H](CC(N)=O)NC(=O)[C@H](CO)NC(=O)[C@H](CO)NC(=O)[C@H](Cc1c[nH]cn1)NC(=O)[C@H](Cc1c[nH]cn1)NC(=O)[C@H](CC(C)C)NC(=O)[C@H](Cc1ccccc1)NC(=O)[C@H](CCC(=O)O)NC(=O)[C@H](C)NC(=O)[C@H](CC(C)C)NC(=O)[C@H](CCCNC(=N)N)NC(=O)[C@H](CCC(N)=O)NC(=O)[C@@H](NC(=O)[C@H](C)NC(=O)[C@@H]1CSSC[C@H](NC(=O)[C@H](CCCCN)NC(=O)CNC(=O)CC[C@H](NC(=O)CCCCCCCCCCCCCCCCCCC(=O)O)C(=O)O)C(=O)N[C@@H](CC(N)=O)C(=O)N[C@@H]([C@@H](C)O)C(=O)N[C@@H](C)C(=O)N[C@@H]([C@@H](C)O)C(=O)N1)[C@@H](C)O)C(=O)N[C@@H](CC(C)C)C(=O)N1CCC[C@H]1C(=O)N1CCC[C@H]1C(=O)N[C@H](C(=O)N[C@@H](CC(N)=O)C(=O)N[C@H](C(=O)NCC(=O)N[C@@H](CO)C(=O)N[C@@H](Cc1c[nH]cn1)C(=O)N[C@H](C(=O)N[C@@H](Cc1ccc(O)cc1)C(N)=O)[C@@H](C)O)C(C)C)[C@@H](C)O [Example 81, N-alpha-[(S)-4-Carboxy-4-(19-carboxynonadecanoylamino)butyryl]-Gly-[Glu14,His17,His35]-pramlintide] ({C20 diacid-γGlu}-GKCNTATCATQRLAEFLHHSSNNFGPILPPTNVGSHTY-NH2; disulfide 3-8 (inferred); C-terminus assumed) | > 200 µM | > 200 µM | > 200 µM | > 200 µM | > 200 µM | > 200 µM | > 200 µM | > 200 µM | > 200 µM | > 200 µM | 0.0705 nM | 0.0955 nM | 24 h | – |
| CC[C@H](C)[C@H](NC(=O)[C@@H]1CCCN1C(=O)CNC(=O)[C@H](Cc1ccccc1)NC(=O)[C@H](CC(N)=O)NC(=O)[C@H](CC(N)=O)NC(=O)[C@H](CO)NC(=O)[C@H](CO)NC(=O)[C@H](Cc1c[nH]cn1)NC(=O)[C@H](Cc1c[nH]cn1)NC(=O)[C@H](CC(C)C)NC(=O)[C@H](Cc1ccccc1)NC(=O)[C@H](CCC(=O)O)NC(=O)[C@H](C)NC(=O)[C@H](CC(C)C)NC(=O)[C@H](CCCNC(=N)N)NC(=O)[C@H](CCC(N)=O)NC(=O)[C@@H](NC(=O)[C@H](C)NC(=O)[C@@H]1CSSC[C@H](NC(=O)[C@H](CCC(=O)O)NC(=O)COCCOCCNC(=O)COCCOCCNC(=O)CC[C@H](NC(=O)CCCCCCCCCCCCCCCCC(=O)O)C(=O)O)C(=O)N[C@@H](CC(N)=O)C(=O)N[C@@H]([C@@H](C)O)C(=O)N[C@@H](C)C(=O)N[C@@H]([C@@H](C)O)C(=O)N1)[C@@H](C)O)C(=O)N[C@@H](CC(C)C)C(=O)N1CCC[C@H]1C(=O)N1CCC[C@H]1C(=O)N[C@H](C(=O)N[C@@H](CC(N)=O)C(=O)N[C@H](C(=O)NCC(=O)N[C@@H](CO)C(=O)N[C@@H](CC(N)=O)C(=O)N[C@H](C(=O)N1CCC[C@H]1C(N)=O)[C@@H](C)O)C(C)C)[C@@H](C)O [Example 82, N-alpha-[2-(2-{2-[2-(2-{2-[(S)-4-Carboxy-4-(17-carboxyheptadecanoylamino)butyrylamino]ethoxy}ethoxy)acetylamino]ethoxy}ethoxy)acetyl]-[Glu1,Glu14,His17,Pro37]-pramlintide] ({C18 diacid-γGlu-AEEA-AEEA}-ECNTATCATQRLAEFLHHSSNNFGPILPPTNVGSNTP-NH2; disulfide 2-7 (inferred); C-terminus assumed) | > 200 µM | > 200 µM | > 200 µM | > 200 µM | > 200 µM | > 200 µM | > 200 µM | > 200 µM | > 200 µM | > 200 µM | 0.288 nM | 0.108 nM | 14 h | – |
